Data as given in US8637484B2, “Modulation of growth hormone receptor expression and insulin-like growth factor expression” (Antisense Therapeutic Limited, priority 2003, dated 2014).
In the oligonucleotide strings, read from the 5' end, every base follows the letter of its sugar. An asterisk marks phosphorothioate; unmarked linkages are phosphodiester. Other units and linkages are bracketed, terminal groups are in braces. A string of capitals states the bases alone. e = 2'-O-(2-methoxyethyl) (MOE); [5mC] = 5-methylcytosine; d = 2'-deoxy (DNA)

Experiments:
[1] = system: mouse growth hormone receptor mRNA; assay: Inhibition of mouse growth hormone receptor mRNA levels in b.END cells, quantitative real-time PCR; format: cell-based; conditions: dose-response studies
Procedure: The mouse brain endothelial cell line b.END was obtained from Dr. Werner Risau at the Max Plank Instititute (Bad Nauheim, Germany). b.END cells were routinely cultured in DMEM, high glucose (Gibco/Life Technologies, Gaithersburg, Md.) supplemented with 10% fetal calf serum (Gibco/Life Technologies, Gaithersburg, Md.). Cells were routinely passaged by trypsinization and dilution when they reached 90% confluence. Cells were seeded into 96-well plates (Falcon-Primaria #3872) at a density of 3000 cells/well for use in RT-PCR analysis.
When cells reached 65-75% confluency, they were treated with oligonucleotide. For cells grown in 96-well plates, wells were washed once with 100 μL OPTI-MEM™-1 reduced-serum medium (Invitrogen Corporation, Carlsbad, Calif.) and then treated with 130 μL of OPTI-MEM™-1 containing 3.75 μg/mL LIPOFECTIN™ (Invitrogen Corporation, Carlsbad, Calif.) and the desired concentration of oligonucleotide. Cells are treated and data are obtained in triplicate. After 4-7 hours of treatment at 37° C., the medium was replaced with fresh medium. Cells were harvested 16-24 hours after oligonucleotide treatment.
Total RNA was isolated using an RNEASY 96™ kit and buffers purchased from Qiagen Inc. (Valencia, Calif.) following the manufacturer's recommended procedures. Briefly, for cells grown on 96-well plates, growth medium was removed from the cells and each well was washed with 200 μL cold PBS. 150 μL Buffer RLT was added to each well and the plate vigorously agitated for 20 seconds. 150 μL of 70% ethanol was then added to each well and the contents mixed by pipetting three times up and down. The samples were then transferred to the RNEASY 96™ well plate attached to a QIAVAC™ manifold fitted with a waste collection tray and attached to a vacuum source. Vacuum was applied for 1 minute. 500 μL of Buffer RW1 was added to each well of the RNEASY 96™ plate and incubated for 15 minutes and the vacuum was again applied for 1 minute. An additional 500 μL of Buffer RW1 was added to each well of the RNEASY 96™ plate and the vacuum was applied for 2 minutes. 1 mL of Buffer RPE was then added to each well of the RNEASY 96™ plate and the vacuum applied for a period of 90 seconds. The Buffer RPE wash was then repeated and the vacuum was applied for an additional 3 minutes. The plate was then removed from the QIAVAC™ manifold and blotted dry on paper towels. The plate was then re-attached to the QIAVAC™ manifold fitted with a collection tube rack containing 1.2 mL collection tubes. RNA was then eluted by pipetting 140 μL of RNAse free water into each well, incubating 1 minute, and then applying the vacuum for 3 minutes.
Quantitation of growth hormone receptor mRNA levels was accomplished by real-time quantitative PCR using the ABI PRISM™ 7600, 7700, or 7900 Sequence Detection System (PE-Applied Biosystems, Foster City, Calif.) according to manufacturer's instructions. This is a closed-tube, non-gel-based, fluorescence detection system which allows high-throughput quantitation of polymerase chain reaction (PCR) products in real-time. As opposed to standard PCR in which amplification products are quantitated after the PCR is completed, products in real-time quantitative PCR are quantitated as they accumulate. This is accomplished by including in the PCR reaction an oligonucleotide probe that anneals specifically between the forward and reverse PCR primers, and contains two fluorescent dyes. A reporter dye (e.g., FAM or JOE, obtained from either PE-Applied Biosystems, Foster City, Calif., Operon Technologies Inc., Alameda, Calif. or Integrated DNA Technologies Inc., Coralville, Iowa) is attached to the 5′ end of the probe and a quencher dye (e.g., TAMRA, obtained from either PE-Applied Biosystems, Foster City, Calif., Operon Technologies Inc., Alameda, Calif. or Integrated DNA Technologies Inc., Coralville, Iowa) is attached to the 3′ end of the probe. […]

[2] = Body weight, growth and organ weights, 1 week pilot study; format: in vivo, mouse; conditions: 1 week study; g/total body weight
Procedure: Saline, antisense, mismatch control and octreotide samples were prepared, and coded for blinding. Animals were given a subcutaneous dose of saline every second day, and mismatch control or antisense with administration on days 0, 2, 4, 6. Animals were given twice daily doses of 25 μg octreotide. Animals were housed 4 per cage, for the duration of one week. They had access to a pre-determined quantity of standard mouse food and water at all times throughout the experiment. They were housed in a quiet, temperature- and humidity-maintained environment for the entirety of the study. At day 0 and before treatment on each day or second day, the animals had their body weight and food intake measured, enabling the correct dose of agent to be administered. The animals were monitored closely for any changes in fur, skin, eye, locomotion or other changes in behavior. No problems were observed. Every second day from day −7 to day 7 body weight and food intake were measured.
The serum remaining following the insulin-like growth factor-1 assay was isolated and stored at −80° C. The whole liver was removed rapidly for weighing and snap-frozen in labelled aluminum parcels by submersion in liquid-nitrogen. […]
This confirms published results of others. […] Weight was measured in two ways: weight trend (live animal), and final carcass weight. […]

acaaagatccatacctgaga (eA*e[5mC]*eA*eA*eA*dG*dA*dT*d[5mC]*d[5mC]*dA*dT*dA*d[5mC]*d[5mC]*eT*eG*eA*eG*eA; antisense) [ISIS 227446]
IC50 [1]: ~25 nM | liver weight [2]: unaffected
